From ChEMBL document CHEMBL1143467, “Synthesis of potent and selective serotonin 5-HT1B receptor ligands” (Bioorg Med Chem Lett, 2005)
pKi: −log10 of the molar value.

Legend:
[1] = target: Delta-type opioid receptor (Homo sapiens, UniProt P41143); test: Affinity towards cloned Opioid receptor delta 1
Histamine H1 receptor = Histamine H1 receptor (Homo sapiens, UniProt P35367); test: Affinity towards cloned Histamine H1 receptor
[2] = Affinity towards cloned Nicotinic acetylcholine receptor
[3] = target: T1, Muscarinic acetylcholine receptor M2 (Homo sapiens, UniProt P08172); test: Affinity towards cloned Muscarinic acetylcholine receptor M2
T1 sequence (P08172 whole entry): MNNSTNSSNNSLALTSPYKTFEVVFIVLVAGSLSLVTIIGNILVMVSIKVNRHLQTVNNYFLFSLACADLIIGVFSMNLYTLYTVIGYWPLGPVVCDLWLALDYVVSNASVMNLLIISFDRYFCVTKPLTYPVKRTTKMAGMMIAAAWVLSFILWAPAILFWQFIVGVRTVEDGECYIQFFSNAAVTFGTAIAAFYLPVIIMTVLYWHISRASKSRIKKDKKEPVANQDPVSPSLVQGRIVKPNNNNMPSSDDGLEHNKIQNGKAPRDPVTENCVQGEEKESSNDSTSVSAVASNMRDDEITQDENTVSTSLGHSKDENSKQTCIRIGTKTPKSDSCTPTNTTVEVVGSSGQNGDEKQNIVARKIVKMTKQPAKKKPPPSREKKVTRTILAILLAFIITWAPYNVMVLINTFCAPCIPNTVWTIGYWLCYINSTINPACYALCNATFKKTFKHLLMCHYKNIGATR

[4] = target: T2, Muscarinic acetylcholine receptor M5 (Homo sapiens, UniProt P08912); test: Affinity towards cloned Muscarinic acetylcholine receptor M5
T2 sequence (P08912 whole entry): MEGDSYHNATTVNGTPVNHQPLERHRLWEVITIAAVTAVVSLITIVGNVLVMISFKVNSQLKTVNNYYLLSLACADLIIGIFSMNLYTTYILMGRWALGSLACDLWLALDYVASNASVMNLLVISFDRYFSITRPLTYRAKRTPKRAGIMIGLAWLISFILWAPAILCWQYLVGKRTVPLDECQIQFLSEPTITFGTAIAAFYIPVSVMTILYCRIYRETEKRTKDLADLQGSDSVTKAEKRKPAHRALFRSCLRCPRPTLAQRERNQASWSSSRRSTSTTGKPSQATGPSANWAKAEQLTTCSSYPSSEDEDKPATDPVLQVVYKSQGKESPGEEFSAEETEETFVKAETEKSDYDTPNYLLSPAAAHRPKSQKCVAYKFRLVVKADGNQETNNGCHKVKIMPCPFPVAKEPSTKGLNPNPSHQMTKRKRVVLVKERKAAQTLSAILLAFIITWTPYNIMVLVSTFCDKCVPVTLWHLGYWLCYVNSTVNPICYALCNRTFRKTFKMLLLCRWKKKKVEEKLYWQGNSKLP

Mu-type opioid receptor = Mu-type opioid receptor (Homo sapiens, UniProt P35372); test: Affinity towards cloned Opioid receptor mu 1
D(4) dopamine receptor = target: T3, D(4) dopamine receptor (Homo sapiens, UniProt P21917); test: Affinity towards cloned Dopamine receptor D4
T3 sequence (P21917 whole entry): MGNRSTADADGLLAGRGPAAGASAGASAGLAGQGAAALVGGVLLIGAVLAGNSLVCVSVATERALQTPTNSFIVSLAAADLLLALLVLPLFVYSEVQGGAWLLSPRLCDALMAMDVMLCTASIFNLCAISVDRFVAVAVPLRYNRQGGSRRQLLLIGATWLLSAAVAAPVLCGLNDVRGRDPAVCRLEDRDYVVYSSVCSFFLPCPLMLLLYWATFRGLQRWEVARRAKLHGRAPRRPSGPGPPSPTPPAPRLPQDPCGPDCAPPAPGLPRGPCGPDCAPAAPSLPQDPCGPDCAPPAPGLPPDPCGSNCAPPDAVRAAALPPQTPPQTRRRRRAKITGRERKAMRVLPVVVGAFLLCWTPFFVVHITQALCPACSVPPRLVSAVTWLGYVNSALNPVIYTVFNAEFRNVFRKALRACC

[5] = target: 5-hydroxytryptamine receptor 2A (Homo sapiens, UniProt P28223); test: In vitro binding affinity towards cloned human 5-HT2A receptor using [3H]5-carboximidotryptamine as radioligand
[6] = target: T4, 5-hydroxytryptamine receptor 1A (Homo sapiens, UniProt P08908); test: Affinity towards cloned human 5-hydroxytryptamine 1A receptor
T4 sequence (P08908 whole entry): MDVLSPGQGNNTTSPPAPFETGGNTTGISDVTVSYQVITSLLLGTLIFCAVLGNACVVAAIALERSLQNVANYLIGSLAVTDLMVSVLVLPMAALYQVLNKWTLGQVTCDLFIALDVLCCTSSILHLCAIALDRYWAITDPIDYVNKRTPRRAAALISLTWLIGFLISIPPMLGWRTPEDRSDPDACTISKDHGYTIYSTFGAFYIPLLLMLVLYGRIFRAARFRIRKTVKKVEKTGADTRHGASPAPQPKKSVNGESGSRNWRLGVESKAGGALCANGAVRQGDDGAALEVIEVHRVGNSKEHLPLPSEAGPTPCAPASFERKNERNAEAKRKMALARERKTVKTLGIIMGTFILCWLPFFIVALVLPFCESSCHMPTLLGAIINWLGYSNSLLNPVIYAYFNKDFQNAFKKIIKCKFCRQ

Chain of Mu-type opioid receptor (P35372 whole entry): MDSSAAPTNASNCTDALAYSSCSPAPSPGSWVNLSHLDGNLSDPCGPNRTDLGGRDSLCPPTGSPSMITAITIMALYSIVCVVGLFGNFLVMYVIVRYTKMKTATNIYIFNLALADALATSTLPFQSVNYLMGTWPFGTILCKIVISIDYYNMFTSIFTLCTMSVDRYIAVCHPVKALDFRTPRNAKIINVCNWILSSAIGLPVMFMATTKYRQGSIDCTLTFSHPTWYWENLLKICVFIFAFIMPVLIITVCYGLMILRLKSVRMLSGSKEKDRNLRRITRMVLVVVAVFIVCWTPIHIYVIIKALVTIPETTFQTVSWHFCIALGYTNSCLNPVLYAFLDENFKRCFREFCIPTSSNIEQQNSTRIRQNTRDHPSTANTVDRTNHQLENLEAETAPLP
Chain of Histamine H1 receptor (P35367 whole entry): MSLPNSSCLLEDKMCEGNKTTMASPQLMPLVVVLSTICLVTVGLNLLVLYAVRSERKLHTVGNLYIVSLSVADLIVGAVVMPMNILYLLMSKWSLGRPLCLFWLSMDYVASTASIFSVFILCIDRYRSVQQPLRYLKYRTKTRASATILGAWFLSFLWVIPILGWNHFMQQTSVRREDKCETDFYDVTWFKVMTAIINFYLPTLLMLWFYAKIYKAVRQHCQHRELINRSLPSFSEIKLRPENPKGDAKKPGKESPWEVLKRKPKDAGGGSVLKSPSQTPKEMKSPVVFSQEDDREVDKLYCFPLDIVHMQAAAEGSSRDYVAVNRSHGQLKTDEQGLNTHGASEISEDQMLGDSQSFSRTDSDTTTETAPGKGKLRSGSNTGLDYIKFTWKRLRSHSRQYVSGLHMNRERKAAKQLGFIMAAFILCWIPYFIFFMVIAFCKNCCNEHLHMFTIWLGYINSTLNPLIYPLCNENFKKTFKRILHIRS
Chain of Delta-type opioid receptor (P41143 whole entry): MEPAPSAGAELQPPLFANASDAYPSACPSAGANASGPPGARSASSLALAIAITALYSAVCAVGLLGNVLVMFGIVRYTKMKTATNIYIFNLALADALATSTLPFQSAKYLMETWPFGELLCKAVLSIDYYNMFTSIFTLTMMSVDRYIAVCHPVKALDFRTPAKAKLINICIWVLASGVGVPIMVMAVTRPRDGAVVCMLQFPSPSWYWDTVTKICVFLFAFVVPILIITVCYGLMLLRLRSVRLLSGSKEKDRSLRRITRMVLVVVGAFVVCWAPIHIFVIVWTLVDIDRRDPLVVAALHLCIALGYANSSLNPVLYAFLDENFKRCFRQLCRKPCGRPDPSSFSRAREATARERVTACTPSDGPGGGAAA
Chain of 5-hydroxytryptamine receptor 2A (P28223 whole entry): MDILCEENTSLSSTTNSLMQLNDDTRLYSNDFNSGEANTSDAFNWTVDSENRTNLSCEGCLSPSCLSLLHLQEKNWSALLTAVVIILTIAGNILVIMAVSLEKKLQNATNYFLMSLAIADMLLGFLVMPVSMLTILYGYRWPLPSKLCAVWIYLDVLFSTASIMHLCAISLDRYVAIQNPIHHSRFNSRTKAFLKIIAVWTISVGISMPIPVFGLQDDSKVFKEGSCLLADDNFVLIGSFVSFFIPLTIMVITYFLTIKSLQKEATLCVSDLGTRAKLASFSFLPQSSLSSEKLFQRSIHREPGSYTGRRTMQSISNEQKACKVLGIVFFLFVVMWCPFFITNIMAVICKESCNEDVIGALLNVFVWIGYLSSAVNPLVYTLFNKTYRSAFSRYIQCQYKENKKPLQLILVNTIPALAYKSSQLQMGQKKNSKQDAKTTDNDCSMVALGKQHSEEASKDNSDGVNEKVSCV

Row | Compound | pKi [1] | pKi (Histamine H1 receptor) | pKi [2] | pKi [3] | pKi [4] | pKi (Mu-type opioid receptor) | pKi (D(4) dopamine receptor) | pKi [5] | pKi [6]
1 | COc1ccc(NC(=O)N2CCN(c3ccc(C(F)(F)F)cc3)CC2)cc1N1CCN(C)CC1 | < 5.00 | < 5.00 | < 5.00 | < 5.00 | < 5.00 | < 5.00 | < 5.00 | 6.21 | 
2 | COc1ccc(NC(=O)N2CCN(c3ccc(-c4ccccc4)cc3)CC2)cc1N1CCN(C)CC1 | < 5.00 | < 5.00 | < 5.00 | < 5.00 | < 5.00 | < 5.00 | < 5.00 | 6.77 | 
3 | COc1ccc(NC(=O)N2CCN(c3ccc(SC)cc3)CC2)cc1N1CCN(C)CC1 | < 5.00 | < 5.00 | < 5.00 | < 5.00 | < 5.00 | < 5.00 | < 5.00 | 5.87 | 
4 | COc1ccc(NC(=O)N2CCN(c3ccccc3Cl)CC2)cc1N1CCN(C)CC1 | < 5.00 | < 5.00 | < 5.00 | < 5.00 | < 5.00 | < 5.00 | < 5.00 | 5.22 | 
5 | COc1ccc(NC(=O)N2CCN(c3ccc(Cl)cc3)CC2)cc1N1CCN(C)CC1 | < 5.00 | < 5.00 | < 5.00 | < 5.00 | < 5.00 | < 5.00 | < 5.00 | 6.00 | 
6 | COc1ccc(NC(=O)c2ccc(-c3ccc(-c4noc(C)n4)cc3C)cc2)cc1N1CCN(C)CC1 [GR-127935] | < 5.00 | < 5.00 | < 5.00 | < 5.00 | < 5.00 | < 5.00 | < 5.00 | 7.37 | 7.15

Now from value to compound:

Row | pKi [1] | pKi (Histamine H1 receptor) | pKi [2] | pKi [3] | pKi [4] | pKi (Mu-type opioid receptor) | pKi (D(4) dopamine receptor) | pKi [5] | pKi [6] | Compound
7 | < 5.00 | < 5.00 | < 5.00 | < 5.00 | < 5.00 | < 5.00 | < 5.00 | 5.35 |  | COc1ccc(NC(=O)N2CCN(c3ccc(F)cc3)CC2)cc1N1CCN(C)CC1
8 | < 5.00 | < 5.00 | < 5.00 | < 5.00 | < 5.00 | < 5.00 | < 5.00 | < 5.00 |  | COc1ccccc1N1CCC(C(=O)Nc2ccc(OC)c(N3CCN(C)CC3)c2)CC1
9 | < 5.00 | < 5.00 | < 5.00 | < 5.00 | < 5.00 | < 5.00 | < 5.00 | < 5.00 |  | COc1ccc(NC(=O)N2CCN(c3ccccc3F)CC2)cc1N1CCN(C)CC1
